Structures can show the parent of a compound that is named as a salt.
Assays:
Format in all cases: cell-based
HTT mRNA = assay: Splicing assay (RT-qPCR) monitoring HTT splice variants, canonical (CJ) and alternative (AJ) junction; conditions: 50% response, A673 or K562 cell line, 24 hours; for IC50: decrease in CJ mRNA; for AC50: increase in AJ mRNA
Summary of the method: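 A673 or K562 cells were treated 24 h with an 11-point 3-fold dilution series (top 10 uM, ≤0.25% DMSO) at 37 °C. HTT canonical- and alternative-junction mRNAs were quantified in lysates by one-step RT-qPCR. Values were normalized to PPIA (A673) or GAPDH/GUSB (K562).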

Target C CJ mRNA = assay: Gene panel canonical junction qPCR assay, Target C; conditions: Table 6, decrease in CJ mRNA, read-out: Target C IC50 (decrease in CJ mRNA levels)
Summary of the method: (§1)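 A673 or K562 cells treated 24 h at 37° C with 11-point 3-fold dilutions, top 10 uM, DMSO ≤0.25%. CJ mRNA quantified by RT-qPCR with exon-junction-spanning probeset, ΔΔCt vs housekeeping gene (GAPDH, GUSB or PPIA) and DMSO control. IC50 from 4-parameter fit of percentage CJ decrease.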

HTT CJ mRNA = assay: Gene panel canonical junction qPCR assay, HTT; conditions: Table 6, decrease in CJ mRNA, read-out: HTT IC50 (decrease in CJ mRNA levels)
Summary of the method: as §1

SMN2 CJ mRNA = assay: Gene panel canonical junction qPCR assay, SMN2; conditions: Table 6, decrease in CJ mRNA, read-out: SMN2 IC50 (decrease in CJ mRNA levels)
Summary of the method: as §1

Cn1cc2cc(-n3cc4sc(C5CCNCC5)cc4n3)cc(F)c2n1 [Compound 105, 7-fluoro-2-methyl-5-[5-(piperidin-4-yl)thieno[3,2-c]pyrazol-2-yl]indazole]
1 to 10 µM: IC50 (Target C CJ mRNA)
0.1 to 1 µM: IC50 (HTT mRNA) | AC50 (HTT mRNA) | IC50 (HTT CJ mRNA) | IC50 (SMN2 CJ mRNA)

Cc1cn2nc(-n3cc4cc(C5CCNCC5)sc4n3)cc2c(C)n1 [Compound 164]
1 to 10 µM: IC50 (HTT mRNA) | AC50 (HTT mRNA) | IC50 (Target C CJ mRNA) | IC50 (HTT CJ mRNA) | IC50 (SMN2 CJ mRNA)

c1n[nH]cc1-n1cc2cc(C3CCNCC3)sc2n1 [Compound 180]
> 10 µM: IC50 (HTT mRNA) | AC50 (HTT mRNA) | IC50 (Target C CJ mRNA) | IC50 (HTT CJ mRNA) | IC50 (SMN2 CJ mRNA)

Cn1cc2cc(-c3cc4cn([C@@H]5CCNC[C@H]5F)nc4s3)cc(F)c2n1 [Compound 187]
0.1 to 1 µM: IC50 (Target C CJ mRNA)
< 0.1 µM: IC50 (HTT mRNA) | AC50 (HTT mRNA) | IC50 (HTT CJ mRNA) | IC50 (SMN2 CJ mRNA)

Cn1cc2cc(-c3nc4sc(N5CCC56CCNC6)cc4s3)cc(F)c2n1 (stereo not drawn) [Compound 200, 5-(5-{1,6-diazaspiro[3.4]octan-1-yl}thieno[2,3-d][1,3]thiazol-2-yl)-7-fluoro-2-methy-lindazole]
> 10 µM: IC50 (HTT mRNA) | AC50 (HTT mRNA) | IC50 (Target C CJ mRNA) | IC50 (HTT CJ mRNA)
1 to 10 µM: IC50 (SMN2 CJ mRNA)

Cn1cc2cc(-n3cc4sc(C5CCNCC5)cc4n3)c(O)cc2n1 [Compound 178]
1 to 10 µM: IC50 (HTT mRNA) | AC50 (HTT mRNA) | IC50 (Target C CJ mRNA) | IC50 (HTT CJ mRNA) | IC50 (SMN2 CJ mRNA)

Cc1cn2cc(-n3cc4sc(C5CCNCC5)cc4n3)cc(C)c2n1 [Compound 173]
1 to 10 µM: IC50 (HTT mRNA) | AC50 (HTT mRNA) | IC50 (HTT CJ mRNA) | IC50 (SMN2 CJ mRNA)
> 10 µM: IC50 (Target C CJ mRNA)

C[C@@H]1C[C@H](c2cc3sc(-c4cc(F)c5nn(C)cc5c4)nc3s2)CCN1 [Compound 192, 7-fluoro-2-methyl-5-[5-(2-methylpiperidin-4-yl)thieno[2,3-d][1,3]thiazol-2-yl]indazole]
< 0.1 µM: IC50 (HTT mRNA) | AC50 (HTT mRNA) | IC50 (Target C CJ mRNA) | IC50 (HTT CJ mRNA) | IC50 (SMN2 CJ mRNA)

Cn1cc2cc(-c3nc4sc(N5CCNCC5)cc4s3)cc(F)c2n1 [Compound 134, 7-fluoro-2-methyl-5-[5-(piperazin-1-yl)thieno[2,3-d][1,3]thiazol-2-yl]indazole]
0.1 to 1 µM: IC50 (HTT mRNA) | IC50 (Target C CJ mRNA) | IC50 (HTT CJ mRNA)
< 0.1 µM: AC50 (HTT mRNA) | IC50 (SMN2 CJ mRNA)

Cc1cn2cc(-c3nc4sc(C5CCNCC5)cc4s3)cc(F)c2n1 [Compound 130, 4-(2-[8-fluoro-2-methylimidazo[1,2-a]pyridin-6-yl]thieno[2,3-d][1,3]thiazol-5-yl)piperidine hydrochloride]
< 0.1 µM: IC50 (HTT mRNA) | AC50 (HTT mRNA) | IC50 (Target C CJ mRNA) | IC50 (HTT CJ mRNA) | IC50 (SMN2 CJ mRNA)

CCNC1CCN(c2cc3sc(-c4cc(F)c5nn(C)cc5c4)nc3s2)CC1 [Compound 137, N-ethyl-1-[2-(7-fluoro-2-methylindazol-5-yl)thieno[2,3-d][1,3]thiazol-5-yl]piperidin-4-amine]
< 0.1 µM: IC50 (SMN2 CJ mRNA)
0.1 to 1 µM: IC50 (HTT mRNA) | AC50 (HTT mRNA) | IC50 (Target C CJ mRNA) | IC50 (HTT CJ mRNA)

Cn1cc2cc(-c3cc4cn(C5CCNCC5)nc4s3)c(F)cc2n1 [Compound 210]
0.1 to 1 µM: IC50 (Target C CJ mRNA)
< 0.1 µM: IC50 (HTT mRNA) | AC50 (HTT mRNA) | IC50 (HTT CJ mRNA) | IC50 (SMN2 CJ mRNA)

Cc1cn2cc(-n3cc4sc(C5CCNCC5)cc4n3)ncc2n1 [Compound 169]
1 to 10 µM: IC50 (HTT mRNA) | AC50 (HTT mRNA) | IC50 (Target C CJ mRNA) | IC50 (HTT CJ mRNA) | IC50 (SMN2 CJ mRNA)

Cc1cn2nc(-n3cc4sc(C5CCNCC5)cc4n3)nc2c(C)n1 [Compound 170]
1 to 10 µM: IC50 (HTT mRNA) | AC50 (HTT mRNA) | IC50 (Target C CJ mRNA) | IC50 (HTT CJ mRNA) | IC50 (SMN2 CJ mRNA)

Cc1cn2nc(-n3cc4sc(C5CCNCC5)cc4n3)cc(C)c2n1 [Compound 101, 4-(2-[2,8-dimethylimidazo[1,2-b]pyridazin-6-yl]thieno[3,2-c]pyrazol-5-yl)piperidine]
0.1 to 1 µM: AC50 (HTT mRNA)
< 0.1 µM: IC50 (HTT mRNA) | IC50 (Target C CJ mRNA) | IC50 (HTT CJ mRNA) | IC50 (SMN2 CJ mRNA)

Cc1nc2c(F)cc(-n3cc4sc(C5CCNCC5)cc4n3)cc2o1 [Compound 167]
1 to 10 µM: IC50 (Target C CJ mRNA)
0.1 to 1 µM: IC50 (HTT mRNA) | AC50 (HTT mRNA) | IC50 (HTT CJ mRNA) | IC50 (SMN2 CJ mRNA)

Cc1nc2c(F)cc(-n3cc4sc(C5CCNCC5)cc4n3)cc2s1 [Compound 168]
> 10 µM: IC50 (Target C CJ mRNA)
1 to 10 µM: IC50 (HTT mRNA) | AC50 (HTT mRNA) | IC50 (HTT CJ mRNA)
0.1 to 1 µM: IC50 (SMN2 CJ mRNA)

Cc1cn2cc(-c3cc4cn(C5CCNCC5)nc4s3)cc(C)c2n1 [Compound 216]
0.1 to 1 µM: IC50 (Target C CJ mRNA)
< 0.1 µM: IC50 (HTT mRNA) | AC50 (HTT mRNA) | IC50 (HTT CJ mRNA) | IC50 (SMN2 CJ mRNA)

Cc1nc2c(F)cc(-c3nc4sc(C5CCNCC5)cc4s3)cc2s1 [Compound 126, 4-fluoro-2-methyl-6-[5-(piperidin-4-yl)thieno[2,3-d][1,3]thiazol-2-yl]-1,3-benzothiazole hydrochloride]
0.1 to 1 µM: IC50 (HTT mRNA) | AC50 (HTT mRNA) | IC50 (HTT CJ mRNA) | IC50 (SMN2 CJ mRNA)
1 to 10 µM: IC50 (Target C CJ mRNA)

COc1c(-c2cc3cn(C4CCNCC4)nc3s2)cc2cn(C)nc2c1F [Compound 218]
0.1 to 1 µM: AC50 (HTT mRNA) | IC50 (Target C CJ mRNA)
< 0.1 µM: IC50 (HTT mRNA) | IC50 (HTT CJ mRNA) | IC50 (SMN2 CJ mRNA)

Cc1c(O)c(-c2cc3cn(C4CCNCC4)nc3s2)cc2cn(C)nc12 [Compound 221]
> 10 µM: IC50 (HTT mRNA) | AC50 (HTT mRNA) | IC50 (Target C CJ mRNA) | IC50 (HTT CJ mRNA) | IC50 (SMN2 CJ mRNA)

Cc1cn2cc(-c3nc4sc(C5CCNCC5)cc4s3)cc(Cl)c2n1 [Compound 139]
< 0.1 µM: IC50 (HTT mRNA) | AC50 (HTT mRNA) | IC50 (Target C CJ mRNA) | IC50 (HTT CJ mRNA) | IC50 (SMN2 CJ mRNA)

Cn1cc2cc(-c3nc4sc(N5CCNC6(CC6)C5)cc4s3)cc(F)c2n1 [Compound 136, 5-(5-[4,7-diazaspiro[2.5]octan-7-yl]thieno[2,3-d][1,3]thiazol-2-yl)-7-fluoro-2-methylindazole]
> 10 µM: IC50 (HTT mRNA) | AC50 (HTT mRNA) | IC50 (Target C CJ mRNA) | IC50 (HTT CJ mRNA)
0.1 to 1 µM: IC50 (SMN2 CJ mRNA)

Cn1cc2cc(-c3nc4sc(N5CCNC(C)(C)C5)cc4s3)cc(F)c2n1 [Compound 142, 5-[5-(3,3-dimethylpiperazin-1-yl)thieno[2,3-d][1,3]thiazol-2-yl]-7-fluoro-2-methylindazole]
0.1 to 1 µM: IC50 (HTT mRNA) | AC50 (HTT mRNA) | IC50 (HTT CJ mRNA)
1 to 10 µM: IC50 (Target C CJ mRNA)
< 0.1 µM: IC50 (SMN2 CJ mRNA)

Cn1cc2cc(-c3nc4sc(C5CCNCC5)cn4n3)cc(F)c2n1 [Compound 103, 7-fluoro-2-methyl-5-[5-(piperidin-4-yl)-[1,2,4]triazolo[3,2-b][1,3]thiazol-2-yl]indazole]
> 10 µM: IC50 (HTT mRNA) | AC50 (HTT mRNA) | IC50 (Target C CJ mRNA) | IC50 (HTT CJ mRNA) | IC50 (SMN2 CJ mRNA)

Cc1cn2nc(-c3nc4sc(C5CCNCC5)cc4s3)cc(C)c2n1 [Compound 112, 4-(2-[2,8-dimethylimidazo[1,2-b]pyridazin-6-yl]thieno[2,3-d][1,3]thiazol-5-yl)piperidine]
< 0.1 µM: IC50 (HTT mRNA) | AC50 (HTT mRNA) | IC50 (Target C CJ mRNA) | IC50 (HTT CJ mRNA) | IC50 (SMN2 CJ mRNA)

Cn1cc2cc(-c3cc4cn(C5CCNCC5)nc4s3)ncc2n1 [Compound 214]
1 to 10 µM: IC50 (HTT mRNA) | IC50 (Target C CJ mRNA) | IC50 (HTT CJ mRNA)
0.1 to 1 µM: AC50 (HTT mRNA) | IC50 (SMN2 CJ mRNA)

Source: patent publication US20240239811A1, “5-(5-(PIPERIDIN-4-YL)THIENO[3,2-C]PYRAZOL-2-YL]INDAZOLE DERIVATIVES AND RELATED COMPOUNDS AS MODULATORS FOR SPLICING NUCLEIC ACIDS AND FOR THE T” (REMIX THERAPEUTICS INC., priority 2020, published 2024)
